Experiments:
[1] = Determination of craft point (temperature at which 1 wt % surfactant dissolves clearly, visual inspection); assay type: physicochemical; conditions: 1 weight % aqueous solution in pure water
Method: (§1) Determination of craft point, critical micelle concentration and surface tension
(§2) An aqueous solution of 1 weight % of a surfactant (solution with pure water) was prepared and the craft point, at which a surfactant dissolves clearly, was determined with visual inspection. And the aqueous solution of several surfactants with varied concentration was prepared with pure water and their surface tension at 25° C. was determined.

[2] = Determination of critical micelle concentration and surface tension of aqueous surfactant solutions; assay type: physicochemical; conditions: pure water, 25° C.; for Surface tension γ cmc (mN/m): at cmc
Method: as §1, §2

[3] = system: activated sludge; test: Biodegradability: degradation by microorganisms with degradation tester and closed system oxygen consumption meter; conditions: 14 days biodegradability test
Method: The biodegradability of the derivatives was determined by checking the degree of degradation of those chemicals by microorganisms (procedures defined in Japanese domestic low for regulation of chemical substances and in OECD) with a degradation tester and closed system oxygen consumption meter. The test was continued for 14 days and the biodegradability data was calculated into percentage.
The 100-% degradability in the testing means that whole of a test sample has been degraded into inorganic substances such as carbon dioxide.

Row | SMILES | Craft point (1 wt %, ° C.) [1] [°C] | Critical micelle concentration cmc [2] [mol/L] | Surface tension γ cmc (mN/m) [2] [mN/m] | Effect on activated sludge (in words) [3]
1 | CCCCCCCCCCCCCC(=O)OCC(O)C(O)C(O)C(O)C[N+](C)(C)C.[I-] (stereo not drawn) [Monomyristate derivative] | <0 | 0.00034 | 34.2 | –
2 | CCCCCCCCCCCCCCCC(=O)OCC(O)C(O)C(O)C(O)C[N+](C)(C)C.[Cl-] (stereo not drawn) [Monopalmitate derivative] | 33.5 | – | – | –
3 | CCCCCCCCCCCC(=O)OCC(O)C(O)C(O)C(O)C[N+](C)(C)C.[Cl-] (stereo not drawn) [Monolaurate derivative] | <0 | 0.0012 | 30.2 | –
4 | CCCCCCCCCCCCCCCCCC(=O)OCC(O)C(O)C(O)C(O)C[N+](C)(C)C.[I-] (stereo not drawn) [Monostearate derivative] | 40.5 | – | – | –
5 | CCCCCCCCCCCCCCCC[N+](C)(C)C.[Br-] [Cetyl trimethyl ammonium bromide] | – | – | – | inhibited the propagation of activated sludge
